Laboratory results from PubChem BioAssay AID1919009 (Molecular Pharmacology Branch, DTP, NCI, 2023).

Tested on: K24384-001-R-PDC complex spheroid growth
Assay: Anticancer human tumor K24384-001-R-PDC patient-derived pancreatic adenocarcinoma cell line growth inhibition [AhR]
Conditions: for IC50: curve of first compound; for viability, T/C: stronger effect = lower value
In short: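 Spheroids combined tumor cells with HUVEC endothelial cells and human MSCs as stroma. AhR antagonists were paired with standard or investigational drugs, each dosed in half-log steps down from near clinical Cmax, or from 10 microM where Cmax was unknown.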

[1] = second compound 0.1 µM, first compound 0.000949 µM
[2] = second compound 0.1 µM, first compound 0.003 µM
[3] = second compound 0.1 µM, first compound 0.00949 µM
[4] = second compound 0.1 µM, first compound 0.03 µM
[5] = second compound 0.1 µM, first compound 0.0949 µM
[6] = second compound 0.1 µM, first compound 0.3 µM
[7] = second compound 0.316 µM, first compound 0.000949 µM
[8] = second compound 0.316 µM, first compound 0.003 µM
[9] = second compound 0.316 µM, first compound 0.00949 µM
[10] = second compound 0.316 µM, first compound 0.03 µM
[11] = second compound 0.316 µM, first compound 0.0949 µM
[12] = second compound 0.316 µM, first compound 0.3 µM
[13] = second compound 1 µM, first compound 0.000949 µM
[14] = second compound 1 µM, first compound 0.003 µM
[15] = second compound 1 µM, first compound 0.00949 µM
[16] = second compound 1 µM, first compound 0.03 µM
[17] = second compound 1 µM, first compound 0.0949 µM
[18] = second compound 1 µM, first compound 0.3 µM
[19] = second compound 3.16 µM, first compound 0.000949 µM
[20] = second compound 3.16 µM, first compound 0.003 µM
[21] = second compound 3.16 µM, first compound 0.00949 µM
[22] = second compound 3.16 µM, first compound 0.03 µM
[23] = second compound 3.16 µM, first compound 0.0949 µM
[24] = second compound 3.16 µM, first compound 0.3 µM
[25] = second compound 10 µM, first compound 0.000949 µM
[26] = second compound 10 µM, first compound 0.003 µM
[27] = second compound 10 µM, first compound 0.00949 µM
[28] = second compound 10 µM, first compound 0.03 µM
[29] = second compound 10 µM, first compound 0.0949 µM
[30] = second compound 10 µM, first compound 0.3 µM
[31] = second compound 0.1 µM, first compound 0.0316 µM
[32] = second compound 0.1 µM, first compound 0.1 µM
[33] = second compound 0.1 µM, first compound 0.316 µM
[34] = second compound 0.1 µM, first compound 1 µM
[35] = second compound 0.1 µM, first compound 3.16 µM
[36] = second compound 0.1 µM, first compound 10 µM
[37] = second compound 0.316 µM, first compound 0.0316 µM
[38] = second compound 0.316 µM, first compound 0.1 µM
[39] = second compound 0.316 µM, first compound 0.316 µM
[40] = second compound 0.316 µM, first compound 1 µM
[41] = second compound 0.316 µM, first compound 3.16 µM
[42] = second compound 0.316 µM, first compound 10 µM
[43] = second compound 1 µM, first compound 0.0316 µM
[44] = second compound 1 µM, first compound 0.1 µM
[45] = second compound 1 µM, first compound 0.316 µM
[46] = second compound 1 µM, first compound 1 µM
[47] = second compound 1 µM, first compound 3.16 µM
[48] = second compound 1 µM, first compound 10 µM
[49] = second compound 3.16 µM, first compound 0.0316 µM
[50] = second compound 3.16 µM, first compound 0.1 µM
[51] = second compound 3.16 µM, first compound 0.316 µM
[52] = second compound 3.16 µM, first compound 1 µM
[53] = second compound 3.16 µM, first compound 3.16 µM
[54] = second compound 3.16 µM, first compound 10 µM
[55] = second compound 10 µM, first compound 0.0316 µM
[56] = second compound 10 µM, first compound 0.1 µM
[57] = second compound 10 µM, first compound 0.316 µM
[58] = second compound 10 µM, first compound 1 µM
[59] = second compound 10 µM, first compound 3.16 µM
[60] = second compound 10 µM, first compound 10 µM
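For viability, T/C in this document: percent of DMSO vehicle-treated spheroid viability set as 100%.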

CC(C)CC(NC(=O)C(Cc1ccccc1)NC(=O)c1cnccn1)B(O)O (stereo not given) + Cc1cncc(-c2nc(NCCc3c[nH]c4ccccc34)c3ncn(C(C)C)c3n2)c1
IC50 (second compound 0.1 µM): 7.54 nM | IC50 (second compound 0.316 µM): 11.2 nM | IC50 (second compound 1 µM): 10.7 nM | IC50 (second compound 3.16 µM): 7.07 nM | IC50 (second compound 10 µM): < 0.949 nM | viability, T/C [1]: 112% | viability, T/C [2]: 83.3% | viability, T/C [3]: 46.1% | viability, T/C [4]: 1.55% | viability, T/C [5]: 0.43% | viability, T/C [6]: 0.56% | viability, T/C [7]: 107% | viability, T/C [8]: 95% | viability, T/C [9]: 58.9% | viability, T/C [10]: 1.17% | viability, T/C [11]: 0.65% | viability, T/C [12]: 0.45% | viability, T/C [13]: 116% | viability, T/C [14]: 106% | viability, T/C [15]: 56.6% | viability, T/C [16]: 0.7% | viability, T/C [17]: 0.26% | viability, T/C [18]: 0.31% | viability, T/C [19]: 83.9% | viability, T/C [20]: 97% | viability, T/C [21]: 36.1% | viability, T/C [22]: 0.65% | viability, T/C [23]: 2.21% | viability, T/C [24]: 0.22% | viability, T/C [25]: 21.9% | viability, T/C [26]: 24.2% | viability, T/C [27]: 12.7% | viability, T/C [28]: 0.35% | viability, T/C [29]: 1.63% | viability, T/C [30]: 1.52%

CCc1c2c(nc3ccc(O)cc13)-c1cc3c(c(=O)n1C2)COC(=O)[C@]3(O)CC + Cc1cncc(-c2nc(NCCc3c[nH]c4ccccc34)c3ncn(C(C)C)c3n2)c1
IC50 (second compound 0.1 µM): 2.95 nM | IC50 (second compound 0.316 µM): 3.6 nM | IC50 (second compound 1 µM): 5.67 nM | IC50 (second compound 3.16 µM): 6.01 nM | IC50 (second compound 10 µM): < 0.949 nM | viability, T/C [1]: 67.3% | viability, T/C [2]: 48.4% | viability, T/C [3]: 33.4% | viability, T/C [4]: 34.9% | viability, T/C [5]: 28% | viability, T/C [6]: 16.8% | viability, T/C [7]: 68.9% | viability, T/C [8]: 47.1% | viability, T/C [9]: 37.6% | viability, T/C [10]: 35.9% | viability, T/C [11]: 23.9% | viability, T/C [12]: 14% | viability, T/C [13]: 76.9% | viability, T/C [14]: 59.1% | viability, T/C [15]: 41.5% | viability, T/C [16]: 32% | viability, T/C [17]: 26.4% | viability, T/C [18]: 16.8% | viability, T/C [19]: 60% | viability, T/C [20]: 52.6% | viability, T/C [21]: 49.2% | viability, T/C [22]: 29.8% | viability, T/C [23]: 21.7% | viability, T/C [24]: 13.9% | viability, T/C [25]: 5.03% | viability, T/C [26]: 5.63% | viability, T/C [27]: 6.51% | viability, T/C [28]: 3.31% | viability, T/C [29]: 4.86% | viability, T/C [30]: 3.7%

Nc1ccccc1NC(=O)c1ccc(CNC(=O)OCc2cccnc2)cc1 + Cc1cncc(-c2nc(NCCc3c[nH]c4ccccc34)c3ncn(C(C)C)c3n2)c1
IC50 (second compound 0.1 µM): 1740 nM | IC50 (second compound 0.316 µM): 1100 nM | IC50 (second compound 1 µM): 1500 nM | IC50 (second compound 3.16 µM): 951 nM | IC50 (second compound 10 µM): < 31.6 nM | viability, T/C [31]: 90% | viability, T/C [32]: 86.7% | viability, T/C [33]: 79.6% | viability, T/C [34]: 69.3% | viability, T/C [35]: 30.3% | viability, T/C [36]: 6.17% | viability, T/C [37]: 111% | viability, T/C [38]: 108% | viability, T/C [39]: 77.7% | viability, T/C [40]: 48.3% | viability, T/C [41]: 31% | viability, T/C [42]: 3.5% | viability, T/C [43]: 111% | viability, T/C [44]: 99.8% | viability, T/C [45]: 87% | viability, T/C [46]: 56.6% | viability, T/C [47]: 33.6% | viability, T/C [48]: 2.82% | viability, T/C [49]: 77.6% | viability, T/C [50]: 93.2% | viability, T/C [51]: 61.9% | viability, T/C [52]: 43% | viability, T/C [53]: 33.1% | viability, T/C [54]: 1.51% | viability, T/C [55]: 15.2% | viability, T/C [56]: 10.7% | viability, T/C [57]: 7.68% | viability, T/C [58]: 5.34% | viability, T/C [59]: 4.19% | viability, T/C [60]: 0.39%

O=C(c1cc(Cc2n[nH]c(=O)c3ccccc23)ccc1F)N1CCN(C(=O)C2CC2)CC1 + Cc1cncc(-c2nc(NCCc3c[nH]c4ccccc34)c3ncn(C(C)C)c3n2)c1
IC50 (second compound 0.1 µM): > 10000 nM | IC50 (second compound 0.316 µM): > 10000 nM | IC50 (second compound 1 µM): > 10000 nM | IC50 (second compound 3.16 µM): > 10000 nM | IC50 (second compound 10 µM): < 31.6 nM | viability, T/C [31]: 128% | viability, T/C [32]: 135% | viability, T/C [33]: 140% | viability, T/C [34]: 96.3% | viability, T/C [35]: 78.5% | viability, T/C [36]: 82.5% | viability, T/C [37]: 155% | viability, T/C [38]: 157% | viability, T/C [39]: 143% | viability, T/C [40]: 117% | viability, T/C [41]: 106% | viability, T/C [42]: 90.5% | viability, T/C [43]: 137% | viability, T/C [44]: 132% | viability, T/C [45]: 142% | viability, T/C [46]: 98.5% | viability, T/C [47]: 128% | viability, T/C [48]: 114% | viability, T/C [49]: 106% | viability, T/C [50]: 119% | viability, T/C [51]: 135% | viability, T/C [52]: 119% | viability, T/C [53]: 119% | viability, T/C [54]: 111% | viability, T/C [55]: 17.7% | viability, T/C [56]: 14% | viability, T/C [57]: 13.2% | viability, T/C [58]: 13.9% | viability, T/C [59]: 10.4% | viability, T/C [60]: 8.74%
